From EP1060748A1, “REMEDIES FOR CORNEAL EPITHELIUM DISTURBANCE” (Wakamoto Pharmaceutical Co., Ltd., priority 1998, dated 1999)
Structures can show the parent of a compound that is named as a salt.

Test system: human corneal epithelial cell line HCEC
Experiment: Protection against UV-C-induced human corneal epithelial cell damage, viable cell count
Type: cell-based
Details: Table 8-2, UV-C 5 seconds
Protocol: Human corneal epithelial cell line HCEC was suspended in 10% fetal bovine serum-SHEM modified medium at a concentration of 1×10^5 cells/ml and 500 µl of this cell suspension was seeded into each well of a 24-multiwell plate (Corning). The cells were cultured in a 5% CO2 incubator at 37°C for 16 to 17 hours. Then, the culture supernatant was thoroughly removed and 500 µl of 10% fetal bovine serum-SHEM modified medium containing a test sample was added to each well. The cells were cultured under the same conditions as above for a further two hours. After completion of culture in contact with the sample, the culture supernatant was removed thoroughly so that there would be substantially no residue of the sample in the multiwell plate. The multiwell plate in this condition was irradiated with UV-C, the ultraviolet light with a maximum lethal power, at a distance of 20 to 30 cm for 5 seconds. After UV-C irradiation, 500 µl/well of 10% fetal bovine serum-SHEM modified medium containing the same sample as above was added again and the cells were cultured under the same conditions as above for 16 to 17 hours. Then, the supernatant was discarded from each well and 100 µl of an excision solution (PBS containing 0.25% trypsin (w/v) and 0.02% EDTA) was added. The plate was then incubated in a 5% CO2 incubator at 37 °C for 6 minutes. After this incubation, the viable epithelial cells were thoroughly detached and dispersed by pipetting and stained with 100 µl of 0.1% (w/v) trypan blue staining solution, and immediately the viable cells were counted with a hemocytometer. The protective effect of the sample against UV-induced human corneal epithelial cell damage was evaluated by the following computation. Protective effect (%) = (number of viable cells in sample-added group ÷ number of viable cells in sample-free group) × 100 [formula]

| SMILES | Protective effect (%) (20 µM) | Protective effect (%) (2 mM) |
| --- | --- | --- |
| CC(=O)Oc1c(C)c(C)c2c(c1C)CCC(C)(CCCC(C)CCCC(C)CCCC(C)C)O2 (racemic) [Vitamin E, DL-α-tocopherol acetate] | 107 | – |
| N[C@@H](CS)C(=O)O [Cysteine] | – | 46 |
| CC(=O)N(O)CCCCCNC(=O)CCC(=O)N(O)CCCCCNC(=O)CCC(=O)N(O)CCCCCN [Deferoxamine mesylate] | – | 94 |
| N[C@@H](CCC(=O)N[C@@H](CS)C(=O)NCC(=O)O)C(=O)O [Glutathione] | – | 95 |
| O=C1O[C@H]([C@@H](O)CO)C(O)=C1O [Vitamin C, ascorbic acid] | – | 104 |
